Laboratory results reported in US20100093642A1, “NOVEL POLYPEPTIDES” (priority 2006, published 2010).
In brackets after ≈: the same amount, converted by molar mass. Residues, ends and D or L forms follow the SMILES beside them. No end group written: not given here.

Key:
Penicillum rogveforti = test: Antifungal MIC; type: cell-based; settings: filamentous fungi; more than 50% inhibition of visible growth, 48 h
Method: (§1) The various derivates of P17 (brominated and non-brominated) were tested for their ability to inhibit fungal growth of the yeast strains Saccaharomyces cerevisiae sp, Candida albicans (ATCC 10231) and Rodotorula sp., and the filamentous strains Botrytis cinerea 101, Penicillium rogveforti, and Fusarium sp. All strains, except C. albicans, were a gift from Prof. A. Tronsmo (The Norwegian University of Life Sciences, Ås, Norway). The fungi were cultivated on potato dextrose agar, supplemented with 2% glucose, at room temperature. Before antifungal testing, the fungi were dissolved in potato dextrose broth (Difco) at half-strength. Cell concentration was determined and adjusted after counting in a Bürker chamber. The filamentous fungi were filtered through a piece of cotton before counting. An aliquot of 50 μl of fungal spores (final concentration 2×10^5 spores per ml) were inoculated in microtiter plates (96 wells) along with 50 μl peptide solution. Peptides, dissolved in distilled water, were tested at final concentrations (two-fold dilutions) ranging from 50 μM to 0.1 μM. Cultures were grown in the dark (without shaking) and with a moist chamber at 25° C. (37° C. for C. albicans). Growth inhibition was determined microscopically after 48 h of incubation. MIC was determined as the lowest concentration of peptide resulting in 50% inhibition of visible growth.

Fusarium sp. = test: Antifungal MIC; type: cell-based; settings: filamentous fungi; more than 50% inhibition of visible growth, 48 h
Method: as §1

Rhodotorula sp. = settings: 48 h
How it was run: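 Broth microdilution in half-strength potato dextrose broth, final 2×10^5 spores per ml, peptides in two-fold dilutions from 50 μM to 0.1 μM final. Incubated in the dark without shaking at 25° C. (37° C. for C. albicans) for 48 h; MIC is lowest concentration giving 50% inhibition of visible growth, scored microscopically.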

[1] = system: Listonella (Vibrio) anguillarum, serotype O2 (FT 1801); type: cell-based
How it was run: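 Peptide fractions were incubated with actively growing bacteria in Mueller Hinton medium at a starting concentration of 3×10^4 cells per ml. Growth was monitored continuously in a Bioscreen C reader; polymyxin B served as reference.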

[2] = system: Pseudomonas aeruginosa ATCC 27853; type: cell-based; settings: non-clinical isolate; 37° C.; 3×10^6 cells per ml
[3] = system: Escherichia coli, ATCC 25922; type: cell-based; settings: non-clinical isolate; 37° C.; 3×10^6 cells per ml
in vitro = type: cell-based, human; settings: human
Method: The toxicity of test peptides on THP-1 cells was measured using the MIT method (Mosmann, 1983), with minor modifications. To induce monocyte-macrophage differentiation, THP-1 cells were cultured in 96-well culture plates (10^6 cells/well) in a volume of 100 μl RPMI 1640 medium, containing 50 ng/ml PMA (which is known to induce the maturation of monocytes) and incubated in a humidified atmosphere of 5% CO2 at 37° C. for 48 hours. The medium was then removed and the cells were washed with PBS, added 100 μl fresh medium (without PMA) and incubated for another 24 hours. Medium was removed and the adherent macrophages were treated with 100 μl of peptide solution (concentrations ranging from 0 to 800 μg/ml), diluted in RPMI-1640 assay medium without FBS. After incubation at 37° C. for 1 hour, the cells were added LPS (0.1 μg/ml) and further incubated for 4 hours. Cells treated with Triton X-100 (1%) were used as positive control (100% killing) whereas cells plus medium only were used as negative control. Following the incubation period, 10 μl MTT (5 mg/ml) dissolved in phosphate-buffered saline (PBS) was added to each well, and the plate was further incubated for 2 hours. A volume of 70 μl of the supernatant was then removed and 100 μl acid alcohol (0.04 M HCl in isopropanol) added to each well to dissolve the dark blue crystals. The plate was placed on a shaker for 1 hour at room temperature and read spectrophotometrically at 595 nm in a microtiter plate reader (DTX880 Multimode Detector, Beckman Coulter). Cell survival (%) was then determined from the ΔA595 nm relative to negative control (100% living cells) and expressed as 50% inhibitory concentration (IC50). The IC50 values were estimated from the dose-response curves, which were obtained by averaging at least 3 parallel experiments.

Compound	Minimal inhibitory concentration (MIC), Penicillum rogveforti (Penicillum rogveforti) [µM]	Minimal inhibitory concentration (MIC), Fusarium sp. (Fusarium sp.) [µM]	Minimal inhibitory concentration (MIC), Rhodotorula sp. (Rhodotorula sp.) [µM]	Minimal inhibitory concentration, L. anguillarum [1] [µM]	Minimal inhibitory concentration, Pseudomonas aeruginosa ATCC 27853 [2] [µM]	Minimal inhibitory concentration, Escherichia coli, ATCC 25922 [3] [µM]	CC50 at 5 h (in vitro) [µM]
GWFKKTFHKVSHAVKSGIHAGQRGCSALGF [P17 HC]	6.25	1.56	3.12	0.78	6.25	6.25	38
CC[C@H](C)[C@H](NC(=O)CNC(=O)[C@H](CO)NC(=O)[C@H](CCCCN)NC(=O)[C@@H](NC(=O)[C@H](C)NC(=O)[C@H](Cc1c[nH]cn1)NC(=O)[C@H](CO)NC(=O)[C@@H](NC(=O)[C@H](CCCCN)NC(=O)[C@H](Cc1c[nH]cn1)NC(=O)[C@H](Cc1ccccc1)NC(=O)[C@@H](NC(=O)[C@H](CCCCN)NC(=O)[C@H](CCCCN)NC(=O)[C@H](Cc1ccccc1)NC(=O)C(Cc1c[nH]c2ccc(Br)cc12)NC(=O)CN)[C@@H](C)O)C(C)C)C(C)C)C(=O)N[C@@H](Cc1c[nH]cn1)C(=O)N[C@@H](C)C(=O)NCC(=O)N[C@@H](CCC(N)=O)C(=O)N[C@@H](CCCNC(=N)N)C(=O)NCC(=O)N[C@@H](CS)C(=O)N[C@@H](CO)C(=O)N[C@@H](C)C(=O)N[C@@H](CC(C)C)C(=O)NCC(=O)N[C@@H](Cc1ccccc1)C(=O)O (some centres unmarked) [P17 HC-Br] (HELM PEPTIDE1{G.[O=C(C(Cc1c[nH]c2ccc(Br)cc12)N[*:1])[*:2]].F.K.K.T.F.H.K.V.S.H.A.V.K.S.G.I.H.A.G.Q.R.G.C.S.A.L.G.F}$$$$V2.0)	6.25 (≈ 20.8 µg/mL)	1.56 (≈ 5.18 µg/mL)	3.12 (≈ 10.4 µg/mL)	0.78 (≈ 2.59 µg/mL)	6.25 (≈ 20.8 µg/mL)	6.25 (≈ 20.8 µg/mL)	51.1
